For 13 compounds, IC50 results are on record in US5554641A, “Nonpeptides as tachykinin antagonists” (priority 1995, dated 1996).

The target of this test is T1, human NK3 receptor (Homo sapiens, UniProt P29371).
T1 construct: expressed in transfected cells; host or cells: CHO cell membranes
T1 sequence (P29371 1-465): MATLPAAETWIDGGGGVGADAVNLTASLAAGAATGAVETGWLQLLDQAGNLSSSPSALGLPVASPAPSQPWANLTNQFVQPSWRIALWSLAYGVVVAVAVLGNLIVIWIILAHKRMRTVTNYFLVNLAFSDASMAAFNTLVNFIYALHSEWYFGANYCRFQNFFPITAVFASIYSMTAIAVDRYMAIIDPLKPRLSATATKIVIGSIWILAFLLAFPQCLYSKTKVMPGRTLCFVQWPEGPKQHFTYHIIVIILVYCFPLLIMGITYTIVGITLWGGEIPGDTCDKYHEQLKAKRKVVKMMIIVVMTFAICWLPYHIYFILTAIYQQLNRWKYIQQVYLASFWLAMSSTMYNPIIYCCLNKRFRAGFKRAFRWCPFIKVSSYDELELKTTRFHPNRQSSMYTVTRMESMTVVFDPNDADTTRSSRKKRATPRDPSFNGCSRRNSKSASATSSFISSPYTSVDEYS
Kind of test: In vitro human NK3 receptor binding assay ([125I]-[MePhe7]neurokinin B, CHO cell membranes).
Compound `CC(C)[C@H](OC(=O)NC(C)(Cc1cc2ccccc2o1)C(=O)NCCCCCCCNC(N)=O)c1ccccc1` (single isomer, unassigned) [Example 10] returned an IC50 of 91 nM.

For `CC(C)[C@H](OC(=O)N[C@](C)(Cc1ccccc1)C(=O)NCCCCCCCCC(N)=O)c1ccccc1` [Example 1, Carbamic acid, [2-[(9-amino-9-oxononyl)amino]-1-methyl-2-oxo-1-(phenylmethyl)ethyl]-, 2-methyl-1-phenylpropyl ester, [R-(R*,S*)]-], the IC50 amounted to 52 nM.

Turning to `CC(C)C(OC(=O)N[C@](C)(Cc1ccccc1)C(=O)NCCCCCCCCC(N)=O)c1ccc(Cl)cc1` (stereo partly shown) [Example 2, Carbamic acid, [2-[(9-amino-9-oxononyl)amino]-1-methyl-2-oxo-1-(phenylmethyl)ethyl]-, 1-(4-chlorophenyl)-2-methylpropyl ester], the IC50 was 258 nM.

In the case of `C[C@](Cc1ccccc1)(NC(=O)OC(c1ccccc1)C1CCCC1)C(=O)NCCCCCCCCC(N)=O` (stereo partly shown) [Example 3, [1-(8-Carbamoyl-octylcarbamoyl)-1-methyl-2-phenyl-ethyl]-carbamic acid cyclopentyl-phenyl-methyl ester], the 50% inhibitory concentration (IC50) was 40 nM.

`CC1(C)CCc2ccccc2C1OC(=O)N[C@](C)(Cc1ccccc1)C(=O)NCCCCCCCCC(N)=O` (stereo partly shown) [Example 4, [1-(8-Carbamoyl-octylcarbamoyl)-1-methyl-2-phenyl-ethyl]-carbamic acid 2,2-dimethyl-1,2,3,4-tetrahydro-naphthalen-1-yl ester] gave an IC50 of 102 nM.

`C[C@](Cc1ccccc1)(NC(=O)OC1CCCCc2ccccc21)C(=O)NCCCCCCCCC(N)=O` (stereo partly shown) [Example 5, [1-(8-Carbamoyl-octylcarbamoyl)-1-methyl-2-phenyl-ethyl]-carbamic acid 6,7,8,9-tetrahydro-5H-benzocyclohepten-5-yl ester] registered an IC50 of 18 nM.

`CC1(C)CCCc2ccccc2C1OC(=O)N[C@](C)(Cc1ccccc1)C(=O)NCCCCCCCCC(N)=O` (stereo partly shown) [Example 6, [1-(8-Carbamoyl-octylcarbamoyl)-1-methyl-2-phenyl-ethyl]-carbamic acid 6,6-dimethyl-6,7,8,9-tetrahydro-5H-benzocyclohepten-5-yl ester] showed an IC50 of 61 nM.

Turning to `CC(C)C(OC(=O)NC(C)(Cc1cccc(F)c1F)C(=O)NCCCOCCCNC(N)=O)c1ccccc1` (stereo not shown) [Example 11, {2-(2,3-Difluoro-phenyl}-1-methyl-1-[3-{3-ureido-propoxy)-propylcarbamoyl]-ethyl}-carbamic acid 2-methyl-1-phenyl-propyl ester], the IC50 was 30 nM.

Compound `CC(C)[C@H](OC(=O)N[C@](C)(Cc1ccccc1)C(=O)N[C@@H](Cc1ccc(O)cc1)C(=O)NCCCCCCO)c1ccccc1` [Example 12, {1-[1-(6-Hydroxy-hexylcarbamoyl)-2-(4-hydroxy-phenyl)-ethylcarbamoyl]-1-methyl-2-phenyl-ethyl}-carbamic acid 2-methyl-1-phenyl-propyl ester] had an IC50 of 15 nM.

Compound `CC(C)[C@H](OC(=O)N[C@](C)(Cc1ccccc1)C(=O)N[C@@H](Cc1ccc(O)cc1)C(=O)NCCCCCCCO)c1ccccc1` [Example 13, {1-[1-(7-Hydroxy-heptylcarbamoyl)-2-(4-hydroxy-phenyl)-ethylcarbamoyl]-1-methyl-2-phenyl-ethyl}-carbamic acid 2-methyl-1-phenyl-propyl ester] returned an IC50 of 12 nM.

`CC(C)[C@@H](OC(=O)N[C@](C)(Cc1ccccc1)C(=O)NC(C)(C)c1ccccc1)c1ccccc1` [Example 15, [1-Methyl-1-(1-methyl-1-phenyl-ethylcarbamoyl)-2-phenyl-ethyl]-carbamic acid 2-methyl-1-phenyl-propyl ester] returned a half-inhibitory concentration (IC50) of 114 nM.

The compound `CC(C)[C@@H](OC(=O)N[C@](C)(Cc1ccccc1)C(=O)N[C@@H](CO)c1ccccc1)c1ccccc1` [Example 16, [1-(2-Hydroxy-1-phenyl-ethylcarbamoyl)-1-methyl-2-phenyl-ethyl]-carbamic acid 2-methyl-1-phenyl-propyl ester] registered an IC50 of 94 nM.

In the case of `CC(C)C(OC(=O)N[C@](C)(Cc1ccccc1)C(=O)N[C@@H](C)c1ccccc1)c1ccc(F)cc1` (stereo partly shown) [Example 17, [1-Methyl-2-phenyl-1-(1-phenyl-ethylcarbamoyl)-ethyl]-carbamic acid 1-(4-fluoro-phenyl)-2-methyl-propyl ester], the IC50 is 982 nM.
